# Measurements taken from article PMC10780413, “Flavonoid Metabolites in Serum and Urine after the Ingestion of Selected Tropical Fruits” (Nutrients, 2024).
# Where two headings read alike, the source gives them in different places.
# Legend:
# [1] = system: xanthine oxidase; design: method as in PMID 11118813; conditions: cited from earlier work
# [2] = system: LPS-induced pulmonary injury; design: method as in PMID 37335159; conditions: in vitro and in vivo models; cited from earlier work
# [3] = cited from earlier work
# [4] = Serum concentration of flavonoid metabolites after ingestion of 200 g fresh fruit (LC-MS/MS after enzyme hydrolysis); format: in vivo, human; conditions: despite presence in the selected fruits
# Excerpt: Three groups of six healthy subjects (male and female) between 20 and 30 years of age, with a body mass index between 18 and 25, were recruited for this study. Each group of participant received one kind of fruit. They were not alcohol drinkers, smokers, drug users, nor pregnant. They had not taken any medications for at least one month prior to the experiment. All participants underwent health checks for their hematological and biochemical profiles. There was no clinical presentation of gastrointestinal diseases (peptic ulcer), kidney diseases, liver diseases or jaundice, heart diseases, asthma, or diabetes mellitus. Levels of blood glucose before and 4 h after fruit ingestion were monitored in all subjects. […]
# Participants maintained a low-flavonoid diet (e.g., diet without vegetables, fruits, or chocolate) for two days and fasted for 8 h before the study to avoid any contribution from other foods containing flavonoids. […] The volume of urine sample was measured and then centrifuged at 233× g to remove the precipitate. […]
# The conjugated metabolites of flavonoids, glucuronic acid, and sulfate conjugates were determined in the serum and urine after hydrolyzing with β-glucuronidase (EC 3.2.1.31, bovine liver type B-I, Sigma, St Louis, MO, USA) and aryl sulfatase (EC 3.1.6.1, Merk, Darmstadt, Germany), respectively, at 37 °C for 16 h. […]
# [5] = design: method as in PMID 14709621; conditions: in vitro study; cited from earlier work
# [6] = format: in vivo, human; conditions: after guava, pineapple, pomelo
# Procedure: Participants maintained a low-flavonoid diet (e.g., diet without vegetables, fruits, or chocolate) for two days and fasted for 8 h before the study to avoid any contribution from other foods containing flavonoids. Servings of fresh fruits of 200 g were given to the participants followed by 200 mL water. Beverages containing alcohol and caffeine were prohibited during the test period. Venous blood samples were collected before and 2, 4, 6, and 8 h after fruit ingestion. Serum was immediately prepared using centrifugation 233× g at 4 °C for 15 min, 200 mM ascorbic acid was added, and the samples were then stored at −20 °C until the analysis (within two weeks). Urine samples were collected at intervals of 0–4, 4–6, 6–8, 8–12, and 12–24 h in plastic bottles containing 70 mg of ascorbic acid per 100 mL of urine. The volume of urine sample was measured and then centrifuged at 233× g to remove the precipitate. […]
# Flavonoid analysis was measured by a modified method of Biessaga [15] and Mullen et al. [16]. […]
# [7] = Bioavailability estimated from total urinary excretion and flavonoid content in fruits; format: in vivo; conditions: human, 200 g, 200 g edible part, fruit content from ref 10, read-out: Estimated bioavailability (total urinary amount as % of content in fruit)
# Procedure: Hollman et al. reported the bioavailability of quercetin from apples and pure quercetin-3-rutinose was only 30% compared to onions. Here, we assumed the flavonoids recovering in urine had passed the blood compartment. […] In the two-hundred grams of edible part, guava and pineapple contained about 6900 μg and 850 μg of quercetin, respectively. The total amount of urinary quercetin accounted for 13% and 80% of the quercetin content in the respective fruits. […] It should be noted that, the bioavailability of flavonoids may be underestimated because the biliary excretion of flavonoids was not taken into account. Moreover, the urinary methyl-conjugated favonoids were not quantified in this study.
# [8] = design: method as in PMID 11361045; conditions: cited from earlier work
# [9] = plasma; cited from earlier work
# [10] = design: method as in PMID 25212140; conditions: after ingestion of rooibos tea; cited from earlier work
smiles,measurement,setting,value
O=C(O)[C@H]1O[C@@H](Oc2c(-c3ccc(O)c(O)c3)oc3cc(O)cc(O)c3c2=O)[C@H](O)[C@@H](O)[C@@H]1O [quercetin-3-glucuronide],Inhibitory effect on xanthine oxidase,[1],not active
same,Activity in LPS-induced pulmonary injury,[2],exerted antioxidant and anti-inflammatory activity
"C[C@@H]1O[C@@H](OC[C@H]2O[C@@H](Oc3c(-c4ccc(O)c(O)c4)oc4cc(O)cc(O)c4c3=O)[C@H](O)[C@@H](O)[C@@H]2O)[C@H](O)[C@H](O)[C@H]1O [quercetin-3-rutinose, reference compound]",Bioavailability of quercetin compared to onions,[3]; in vivo,30%
O=C(O)[C@H]1O[C@@H](Oc2cc(-c3oc4cc(O)cc(O)c4c(=O)c3O)ccc2O)[C@H](O)[C@@H](O)[C@@H]1O [3′-quercetin glucuronide],Inhibitory effect on xanthine oxidase,[1],potent inhibitory effect
COc1ccc([C@@H]2CC(=O)c3c(O)cc(O)cc3O2)cc1O [hesperetin],Detection in serum or urine after fruit ingestion,[4],did not detect
O=c1cc(-c2ccc(O)cc2)oc2cc(O)cc(O)c12 [apigenin],Detection in serum or urine after fruit ingestion,[4],did not detect
same,"Phase I metabolism, major metabolite",[5],forms luteolin as a major metabolite
"O=c1c(O)c(-c2ccc(O)c(O)c2)oc2cc(O)cc(O)c12 [Quercetin, quercetin]",Conjugated forms recovered in urine,[6],found in both conjugated metabolites
same,bioavailability,"[7]; urine, oral, from guava",13%
same,bioavailability,"[7]; urine, oral, from pineapple",80%
same,Tmax of quercetin,[8]; after ingesting buckwheat tea,4.3 h
same,Tmax of quercetin,[8]; after ingesting quercetin-3-rutioside,6.9 h
same,Tmax of quercetin,[8]; after single ingestion of onion,0.7 h
same,Tmax of quercetin,[8]; after single ingestion of quercetin-4’-glucoside,0.7 h
same,Bioavailability of quercetin compared to onions,[3]; from apples,30%
same,Share that is glucuronide in the 3′-position,[9],20–40%
"O=c1c(O)c(-c2ccc(O)cc2)oc2cc(O)cc(O)c12 [Kaempferol, kaempferol]",Conjugated forms recovered in urine,[6],found in both conjugated metabolites
same,bioavailability,"[7]; urine, oral, from pineapple",10%
same,bioavailability,"[7]; urine, oral, from pomelo",1%
same,Share that is glucuronide in the 3′-position,[9],20–40%
O=C(O)[C@H]1O[C@@H](Oc2ccc(-c3oc4cc(O)cc(O)c4c(=O)c3O)cc2O)[C@H](O)[C@@H](O)[C@@H]1O [4′-quercetin glucuronide],Inhibitory effect on xanthine oxidase,[1],potent inhibitory effect
"O=c1cc(-c2ccc(O)c(O)c2)oc2cc(O)cc(O)c12 [Luteolin, luteolin]",bioavailability,"[7]; urine, oral, from guava",5%
same,bioavailability,"[7]; urine, oral, from pomelo",5%
same,Tmax,[10],1.5 to 3 h
"O=c1c(O)c(-c2cc(O)c(O)c(O)c2)oc2cc(O)cc(O)c12 [Myricetin, myricetin]",Conjugated forms recovered in urine,[6],only detected in sulfate form
same,bioavailability,"[7]; in vivo, from guava",5%
same,bioavailability,"[7]; in vivo, from pineapple",10%
same,Share that is glucuronide in the 3′-position,[9],20–40%
